The target of one assay is human PPARgamma (Homo sapiens (Human), UniProt P37231). The experiment in a line: Transactivation (reporter gene) assay, GAL4-PPARgamma LBD in U-2 OS cells. It counts as cell-based. The conditions noted are these: 40 h incubation, 16 μM Pioglitazone as 100% control, read-out: EC50 PPARγ. On the procedure:
(§1) Transactivation Assay Expression vectors were prepared by inserting the ligand binding domain cDNA (complementary DNA) of human PPARalpha (amino acid 168-468) and human PPARgamma (amino acid 205-505), 3′ to and in frame with, the yeast GAL4 transcription factor DNA binding domain and the nuclear localization signal from the T-antigen of Polyoma Virus into the mammalian expression vector pSGS (Stratagene). The resulting expression vectors pSGGAL-PPARalpha and pSGGAL-PPARgamma were used in co-transfection experiments together with a modified pGL3 promoter plasmid (Promega) containing five copies of the UAS GAL4 recognition site. 2.5 μg pSGGAL-PPARalpha or pSGGAL-PPARgamma were mixed with 25 μg pGL3p […] and 22.5 μg pBluescript (Stratagene) in 0.95 mL ice cold PBS containing between 9-12 million U-2 OS (human osteosarcoma) cells. The cell/DNA mixture was incubated on ice for 5 minutes and then divided between two 0.4 cm cuvettes and electroporated at 960 μF, 230 V using a BioRad electroporator. The two electroporation mixes were combined in assay medium [Dulbecco's Modified Eagle Medium w/o phenol red, (Gibco 11880-028) including 10% FBS (Foetal Bovine Serum), 1% PEST (Penicillin & Streptomycin), 20 mM Hepes, 2 mM L-Glutamine and 0.36% Glucose (Gibco 31966-021)] at 0.32 million cells/ml. 25 μl diluted, electroporated cells, were seeded into 384-well plates and allowed to adhere for 3-4 h at 37° C., 5% CO2 in a cell culture incubator. Test compounds in DMSO were diluted 40 fold in assay medium. 7 μl of diluted compound was added to the adhered electroporated cells and incubation was continued for 40 h in a cell culture incubator. Cells were lysed by adding 32 μl/well LucLite (Packard) and incubated at room temperature for 15 minutes. Luciferase activity was measured using a luminometry protocol on a Wallac Victor2 plate reader. 16 μM ETYA was used as the 100% control for humanPPARalpha activity and 16 μM Pioglitazone was used as the 100% control for humanPPARgamma activity. In Vivo Assay Determination of Plasma Clearance and Oral Bioavailability in Hamster or Mouse
(In general: Reporter assays use an easily measured gene product as a stand-in for the process of interest.)

Another assay has as its target human PPARalpha (Homo sapiens (Human), UniProt Q07869). Description: Transactivation (reporter gene) assay, GAL4-PPARalpha LBD in U-2 OS cells. The settings on record: 40 h incubation, 16 μM ETYA as 100% control, read-out: EC50 PPARα. It counts as cell-based. As for the experimental part: as §1

human PPARalpha, sequence (Q07869 168-468): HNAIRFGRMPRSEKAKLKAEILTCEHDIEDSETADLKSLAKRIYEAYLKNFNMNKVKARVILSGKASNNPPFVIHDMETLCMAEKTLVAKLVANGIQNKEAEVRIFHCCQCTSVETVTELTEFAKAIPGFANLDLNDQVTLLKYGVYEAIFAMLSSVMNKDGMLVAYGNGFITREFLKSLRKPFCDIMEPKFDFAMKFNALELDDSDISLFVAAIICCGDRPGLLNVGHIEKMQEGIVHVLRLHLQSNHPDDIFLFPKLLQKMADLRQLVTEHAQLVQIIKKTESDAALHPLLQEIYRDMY
human PPARgamma, sequence (P37231 205-505): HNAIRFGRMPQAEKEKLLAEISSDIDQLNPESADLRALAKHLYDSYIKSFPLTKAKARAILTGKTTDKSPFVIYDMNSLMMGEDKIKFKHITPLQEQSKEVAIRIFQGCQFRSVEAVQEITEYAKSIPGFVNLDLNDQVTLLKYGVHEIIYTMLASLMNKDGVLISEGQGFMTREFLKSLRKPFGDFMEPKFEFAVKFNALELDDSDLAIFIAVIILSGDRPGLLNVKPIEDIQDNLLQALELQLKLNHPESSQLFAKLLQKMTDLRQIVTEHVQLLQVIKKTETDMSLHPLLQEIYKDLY

In general, EC50 refers to the concentration that produces a half-maximal response. As for `O=C(Cc1ccc(SCc2ccccc2C(=O)O)cc1)OCCc1ccccc1C(F)(F)F` [Example 40, 2-{4-[2-(2-Trifluoromethylphenyl)ethoxycarbonylmethyl]phenylsulfanylmethyl}-benzoic acid], the EC50 on human PPARgamma stood at 8200 nM; on human PPARalpha it was 760 nM.
For `COC(=O)C(Cc1ccccc1)OC(=O)Cc1ccc(SCc2ccccc2C(=O)O)cc1` (stereo not drawn) [Example 37, 2-[4-(1-Methoxycarbonyl-2-phenylethoxycarbonylmethyl)phenylsulfanylmethyl]-benzoic acid], in that order: 3900 nM and 2200 nM.
As for `CCOC(Cc1ccc(C(=O)OCc2ccc(OS(C)(=O)=O)cc2)cc1)C(=O)O` (stereo not drawn) [Example 27, 4-(2-Carboxy-2-ethoxy-ethyl)-benzoic acid 4-methanesulfonyloxy-benzyl ester], the EC50 on human PPARgamma was determined as 1400 nM.
Take `CS(=O)(=O)Oc1ccc(CCSC(=O)c2ccc(CC(SCCc3ccc(F)cc3)C(=O)O)cc2)cc1` (stereo not drawn) [Example 18, 2-[2-(4-Fluoro-phenyl)-ethylsulfanyl]-3-{4-[2-(4-methanesulfonyloxy-phenyl)-ethylsulfanylcarbonyl]-phenyl}-propionic acid]: the EC50 on human PPARalpha amounted to 3400 nM.
For the molecule `CCOC(Cc1ccc(OC(=O)Cc2ccc(NC(=O)OC(C)(C)C)cc2)c(C)c1)C(=O)O` (stereo not drawn) [Example 26, 3-{4-[2-(4-tert-Butoxycarbonylamino-phenyl)-acetoxy]-3-methyl-phenyl}-2-ethoxy-propionic acid], the EC50 on human PPARgamma amounted to 73 nM.
On the same count and under the same terms, next, `O=C(OCc1nc(-c2ccccc2)oc1C(F)(F)F)c1ccc(CC(SCCc2ccc(F)cc2)C(=O)O)cc1` (stereo not drawn) [Example 12, 4-{2-Carboxy-2-[2-(4-fluoro-phenyl)-ethylsulfanyl]-ethyl}-benzoic acid 2-phenyl-5 trifluoromethyl-oxazol-4-ylmethyl ester]: 58 nM; `CCOC(Cc1ccc(OC(=O)Cc2nc(-c3ccccc3)oc2C)c(Cc2ccccc2)c1)C(=O)O` (stereo not drawn) [Example 23, 3-{3-Benzyl-4-[2-(5-methyl-2-phenyl-oxazol-4-yl)-acetoxy]-phenyl}-2-ethoxy-propionic acid]: 53 nM.
Still for that read-out and setting: next, `CCOC(Cc1ccc(OC(=O)Cc2nc(-c3ccccc3)oc2C)c(C)c1)C(=O)O` (stereo not drawn) [Example 25, 2-Ethoxy-3-{3-methyl-4-[2-(5-methyl-2-phenyl-oxazol-4-yl)-acetoxy]-phenyl}-propionic acid]: 43 nM.
For the molecule `O=C(Cc1cccc(SCc2ccccc2C(=O)O)c1)OCCc1ccccc1C(F)(F)F` [Example 38, 2-{3-[2-(2-Trifluoromethylphenyl)ethoxycarbonylmethyl]phenylsulfanylmethyl}-benzoic acid], the EC50 on human PPARgamma was 9000 nM; on human PPARalpha, 3800 nM.
In the same order, the values of `Cc1cccc(C)c1COC(=O)Cc1cccc(SCc2ccccc2C(=O)O)c1` [Example 41, 2-[3-(2,6-Dimethyl-benzyloxycarbonylmethyl)-phenylsulfanylmethyl]-benzoic acid] are 3800 nM and 15000 nM.
As to `CCOC(Cc1ccc(OC(=O)Cc2ccc(NC(=O)OC(C)(C)C)cc2)c(Cc2ccccc2)c1)C(=O)O` (stereo not drawn) [Example 24, 3-{3-Benzyl-4-[2-(4-tert-butoxycarbonylamino-phenyl)-acetoxy]-phenyl}-2-ethoxy-propionic acid], the EC50 at human PPARgamma amounted to 5.2 nM.
As for `O=C(Cc1cccc(SCc2ccccc2C(=O)O)c1)OCc1ccc(-n2cccn2)cc1` [Example 42, 2-[3-(4-Pyrazol-1-yl-benzyloxycarbonylmethyl)-phenylsulfanylmethyl]-benzoic acid], the EC50 came out at 4200 nM at human PPARgamma and 18000 nM on human PPARalpha.
For `Cc1oc(-c2ccccc2)nc1CC(=O)OCc1ccc(CC(SCCc2ccc(F)cc2)C(=O)O)cc1` (single isomer, unassigned; (-)) [Example 19, (−)-2-[2-(4-Fluoro-phenyl)-ethylsulfanyl]-3-{4-[2-(5-methyl-2-phenyl-oxazol-4-yl)-acetoxymethyl]-phenyl}-propionic acid], in that order: 470 nM and 72 nM.
In the same order, the values of `CC(C(=O)OCc1ccc(CC(SCCc2ccc(F)cc2)C(=O)O)cc1)c1ccccc1` (stereo not drawn) [Example 7, 2-[2-(4-Fluoro-phenyl)-ethylsulfanyl]-3-[4-(2-phenyl-propionyloxymethyl)-phenyl]-propionic acid] are 1700 nM and 18000 nM.
For `COc1ccc(CCOC(=O)Cc2ccc(SCc3ccccc3C(=O)O)cc2)cc1OC` [Example 36, 2-{4-[2-(3,4-Dimethoxy-phenyl)-ethoxycarbonylmethyl]-phenylsulfanylmethyl}-benzoic acid], in that order: 7000 nM and 21000 nM.
For `Cc1oc(-c2ccccc2)nc1CC(=O)OCc1ccc(CC(SCCc2ccc(F)cc2)C(=O)O)cc1` (stereo not drawn) [Example 15, 2-[2-(4-Fluoro-phenyl)-ethylsulfanyl]-3-{4-[2-(5-methyl-2-phenyl-oxazol-4-yl)acetoxymethyl]-phenyl}-propionic acid], the EC50 at human PPARgamma was found to be 840 nM; at human PPARalpha, 130 nM.
In the same order, the values of `O=C(Cc1cccc(SCc2ccccc2C(=O)O)c1)OCCc1ccc(C(F)(F)F)cc1` [Example 32, 2-{3-[2-(4-Trifluoromethyl-phenyl)-ethoxycarbonylmethyl]-phenylsulfanylmethyl}-benzoic acid] are 3000 nM and 5500 nM.
As to `CS(=O)(=O)Oc1ccc(COC(=O)Cc2ccc(CC(SCCc3ccc(F)cc3)C(=O)O)cc2)cc1` (stereo not drawn) [Example 4, 2-[2-(4-Fluoro-phenyl)-ethylsulfanyl]-3-[4-(4-methanesulfonyloxy-benzyloxycarbonylmethyl)-phenyl]-propionic acid], on human PPARalpha, the EC50 turned out to be 1400 nM.
Turning to `CS(=O)(=O)Oc1ccc(CC(=O)OCCCc2ccc(CC(SCCc3ccc(F)cc3)C(=O)O)cc2)cc1` (stereo not drawn) [Example 6, 2-[2-(4-Fluoro-phenyl)-ethylsulfanyl]-3-(4-{3-[2-(4-methanesulfonyloxy-phenyl)-acetoxy]-propyl}-phenyl)-propionic acid], the EC50 on human PPARgamma was 18000 nM; on human PPARalpha it was 330 nM.
For the molecule `CS(=O)(=O)Oc1ccc(COC(=O)c2ccc(CC(SCCc3ccc(F)cc3)C(=O)O)cc2)cc1` (stereo not drawn) [Example 16, 4-{2-Carboxy-2-[2-(4-fluoro-phenyl)-ethylsulfanyl]-ethyl}-benzoic acid 4-methanesulfonyloxy-benzyl ester], the concentration for a half-maximal effect (EC50) on human PPARalpha was 1100 nM.
With `Cc1oc(-c2ccccc2)nc1CCOC(=O)c1ccc(CC(SCCc2ccc(F)cc2)C(=O)O)cc1` (stereo not drawn) [Example 14, 4-{2-Carboxy-2-[2-(4-fluoro-phenyl)-ethylsulfanyl]-ethyl}-benzoic acid 2-(5-methyl-2 phenyl-oxazol-4-yl)-ethyl ester], the EC50 on human PPARgamma worked out at 110 nM; on human PPARalpha, 1400 nM.
In the same order, the values of `CS(=O)(=O)Oc1ccc(CC(=O)OCCc2ccc(CC(SCCc3ccc(F)cc3)C(=O)O)cc2)cc1` (stereo not drawn) [Example 5, 2-[2-(4-Fluoro-phenyl)-ethylsulfanyl]-3-(4-{2-[2-(4-methanesulfonyloxy-phenyl)-acetoxy]-ethyl}-phenyl)-propionic acid] are 6000 nM and 200 nM.
For `O=C(Cc1ccc(C(F)(F)F)cc1)OCc1ccc(SCc2ccccc2C(=O)O)cc1` [Example 29, 2-{4-[2-(4-Trifluoromethyl-phenyl)-acetoxymethyl]-phenylsulfanylmethyl}-benzoic acid], in that order: 760 nM and 29 nM.
For `O=C(Cc1ccc(SCc2ccccc2C(=O)O)cc1)OCc1ccc(C(F)(F)F)cc1` [Example 30, 2-[4-(4-Trifluoromethyl-benzyloxycarbonylmethyl)-phenylsulfanylmethyl]-benzoic acid], the half-maximal effective concentration (EC50) at human PPARgamma was found to be 1700 nM; on human PPARalpha it was 160 nM.
In the same order, the values of `O=C(Cc1ccc(SCc2ccccc2C(=O)O)cc1)OCc1ccc(-n2cccn2)cc1` [Example 43, 2-[4-(4-Pyrazol-1-yl-benzyloxycarbonylmethyl)-phenylsulfanylmethyl]-benzoic acid] are 4200 nM and 16000 nM.
As for `Cc1cccc(C)c1COC(=O)Cc1ccc(SCc2ccccc2C(=O)O)cc1` [Example 33, 2-[4-(2,6-Dimethyl-benzyloxycarbonylmethyl)-phenylsulfanylmethyl]-benzoic acid], the values for the EC50 on human PPARgamma and at human PPARalpha were 18000 nM and 620 nM, respectively.
In the same order, the values of `CC(C)Cc1ccc(C(C)C(=O)OCc2ccc(CC(SCCc3ccc(F)cc3)C(=O)O)cc2)cc1` (stereo not drawn) [Example 9, 2-[2-(4-Fluoro-phenyl)-ethylsulfanyl]-3-{4-[2-(4-isobutyl-phenyl)-propionyloxymethyl]-phenyl}-propionic acid] are 930 nM and 1500 nM.
